Counter-ions that a name gives are not always drawn.
What was measured:
Format in all cases: biochemical
[1] = target: T1, human JAK1 (a.a. 837-1142) (Homo sapiens, UniProt P23458); assay: In vitro JAK kinase assay (HTRF, phosphorylation of a biotinylated peptide), JAK1; settings: method AA1 (90 μM ATP) or AA2 (1000 μM ATP), not stated per value; read-out: JAK1 IC50
T1 construct: human JAK1 (a.a. 837-1142); His tag (N); made in house; host or cells: insect cells (baculovirus)
Procedure, shortened: (§1)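 Kinase activity was measured as phosphorylation of a biotinylated peptide, with ATP at 90 μM for JAK1, 30 μM for JAK2 and 3 μM for JAK3. Reactions ran 1 hr at room temperature, were stopped with EDTA plus SA-APC and Eu-Py20, and were read by HTRF after 40 minutes of antibody binding.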

[2] = target: T2, human JAK2 (a.a. 828-1132) (Homo sapiens, UniProt O60674); assay: In vitro JAK kinase assay (HTRF, phosphorylation of a biotinylated peptide), JAK2; settings: method AA1 (30 μM ATP) or AA2 (1000 μM ATP), not stated per value
T2 construct: JAK2 (a.a. 828-1132); His tag (N); made in house; host or cells: insect cells (baculovirus)
T2 sequence (O60674 828-1132): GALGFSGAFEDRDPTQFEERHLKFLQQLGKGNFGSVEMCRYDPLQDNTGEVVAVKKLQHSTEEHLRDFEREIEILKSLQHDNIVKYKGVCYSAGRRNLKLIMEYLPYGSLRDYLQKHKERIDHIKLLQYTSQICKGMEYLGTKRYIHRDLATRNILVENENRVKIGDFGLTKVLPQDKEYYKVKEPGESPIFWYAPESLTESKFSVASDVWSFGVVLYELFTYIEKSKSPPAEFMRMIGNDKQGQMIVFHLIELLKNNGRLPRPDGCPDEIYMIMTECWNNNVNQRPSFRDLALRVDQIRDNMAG
Procedure, shortened: as §1

[3] = target: T3, human JAK3 (a.a. 781-1124) (Homo sapiens, UniProt P52333); assay: In vitro JAK kinase assay (HTRF, phosphorylation of a biotinylated peptide), JAK3; settings: method AA1 (3 μM ATP) or AA2 (1000 μM ATP), not stated per value
T3 construct: JAK3 (a.a. 781-1124); His tag (N); made in house; host or cells: insect cells (baculovirus)
T3 sequence (P52333 781-1124): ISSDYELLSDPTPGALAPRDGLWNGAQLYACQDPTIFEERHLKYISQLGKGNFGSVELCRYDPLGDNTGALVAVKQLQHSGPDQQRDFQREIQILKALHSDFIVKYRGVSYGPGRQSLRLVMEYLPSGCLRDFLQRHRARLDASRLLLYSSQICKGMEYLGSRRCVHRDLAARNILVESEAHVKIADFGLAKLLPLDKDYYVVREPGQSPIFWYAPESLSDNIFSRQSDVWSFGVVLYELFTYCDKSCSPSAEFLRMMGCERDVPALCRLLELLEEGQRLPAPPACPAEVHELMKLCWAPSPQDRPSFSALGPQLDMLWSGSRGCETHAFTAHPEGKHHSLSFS
Procedure, shortened: as §1

[4] = target: TYK2 (Homo sapiens, UniProt P29597); assay: TYK2 kinase inhibition (Table A1)
Chain of TYK2 (P29597 whole entry): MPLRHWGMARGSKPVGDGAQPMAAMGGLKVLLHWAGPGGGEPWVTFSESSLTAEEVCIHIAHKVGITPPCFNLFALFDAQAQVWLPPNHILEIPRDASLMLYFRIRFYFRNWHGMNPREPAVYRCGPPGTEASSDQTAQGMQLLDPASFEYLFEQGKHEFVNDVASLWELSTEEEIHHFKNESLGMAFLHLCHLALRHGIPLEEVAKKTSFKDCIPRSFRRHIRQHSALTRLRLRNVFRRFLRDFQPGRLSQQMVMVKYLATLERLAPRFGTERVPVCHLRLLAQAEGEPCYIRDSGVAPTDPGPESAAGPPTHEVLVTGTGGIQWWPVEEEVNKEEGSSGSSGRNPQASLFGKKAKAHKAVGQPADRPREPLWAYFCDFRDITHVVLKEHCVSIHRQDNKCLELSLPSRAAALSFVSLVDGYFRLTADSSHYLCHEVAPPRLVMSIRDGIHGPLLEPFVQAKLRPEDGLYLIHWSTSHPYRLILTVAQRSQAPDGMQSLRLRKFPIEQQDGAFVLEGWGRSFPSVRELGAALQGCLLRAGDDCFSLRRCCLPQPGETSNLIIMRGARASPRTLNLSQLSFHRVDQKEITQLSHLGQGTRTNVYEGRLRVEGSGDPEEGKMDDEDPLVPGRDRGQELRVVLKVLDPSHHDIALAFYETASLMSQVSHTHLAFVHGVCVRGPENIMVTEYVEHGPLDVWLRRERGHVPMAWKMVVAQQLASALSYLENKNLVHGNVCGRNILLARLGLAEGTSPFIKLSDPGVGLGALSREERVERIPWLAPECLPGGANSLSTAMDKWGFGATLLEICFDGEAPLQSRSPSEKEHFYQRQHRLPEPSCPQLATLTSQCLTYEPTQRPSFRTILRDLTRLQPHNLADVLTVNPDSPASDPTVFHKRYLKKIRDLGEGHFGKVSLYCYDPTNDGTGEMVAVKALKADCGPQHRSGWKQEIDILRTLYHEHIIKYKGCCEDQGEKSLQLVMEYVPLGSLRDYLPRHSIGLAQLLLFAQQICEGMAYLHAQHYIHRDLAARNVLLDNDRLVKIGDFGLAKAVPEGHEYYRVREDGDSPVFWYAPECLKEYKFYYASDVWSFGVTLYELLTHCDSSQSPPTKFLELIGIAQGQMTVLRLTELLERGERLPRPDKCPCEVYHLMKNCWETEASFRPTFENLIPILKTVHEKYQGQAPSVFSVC

[5] = target: T4, Recombinant Human Anaplastic Lymphoma Kinase (Homo sapiens, UniProt Q9UM73); assay: ALK HTRF kinase assay; settings: compound at 500 nM or 1 mM; 90 μM ATP
T4 construct: purchased Invitrogen, Carlsbad, Calif
T4 sequence (Q9UM73 19-1620): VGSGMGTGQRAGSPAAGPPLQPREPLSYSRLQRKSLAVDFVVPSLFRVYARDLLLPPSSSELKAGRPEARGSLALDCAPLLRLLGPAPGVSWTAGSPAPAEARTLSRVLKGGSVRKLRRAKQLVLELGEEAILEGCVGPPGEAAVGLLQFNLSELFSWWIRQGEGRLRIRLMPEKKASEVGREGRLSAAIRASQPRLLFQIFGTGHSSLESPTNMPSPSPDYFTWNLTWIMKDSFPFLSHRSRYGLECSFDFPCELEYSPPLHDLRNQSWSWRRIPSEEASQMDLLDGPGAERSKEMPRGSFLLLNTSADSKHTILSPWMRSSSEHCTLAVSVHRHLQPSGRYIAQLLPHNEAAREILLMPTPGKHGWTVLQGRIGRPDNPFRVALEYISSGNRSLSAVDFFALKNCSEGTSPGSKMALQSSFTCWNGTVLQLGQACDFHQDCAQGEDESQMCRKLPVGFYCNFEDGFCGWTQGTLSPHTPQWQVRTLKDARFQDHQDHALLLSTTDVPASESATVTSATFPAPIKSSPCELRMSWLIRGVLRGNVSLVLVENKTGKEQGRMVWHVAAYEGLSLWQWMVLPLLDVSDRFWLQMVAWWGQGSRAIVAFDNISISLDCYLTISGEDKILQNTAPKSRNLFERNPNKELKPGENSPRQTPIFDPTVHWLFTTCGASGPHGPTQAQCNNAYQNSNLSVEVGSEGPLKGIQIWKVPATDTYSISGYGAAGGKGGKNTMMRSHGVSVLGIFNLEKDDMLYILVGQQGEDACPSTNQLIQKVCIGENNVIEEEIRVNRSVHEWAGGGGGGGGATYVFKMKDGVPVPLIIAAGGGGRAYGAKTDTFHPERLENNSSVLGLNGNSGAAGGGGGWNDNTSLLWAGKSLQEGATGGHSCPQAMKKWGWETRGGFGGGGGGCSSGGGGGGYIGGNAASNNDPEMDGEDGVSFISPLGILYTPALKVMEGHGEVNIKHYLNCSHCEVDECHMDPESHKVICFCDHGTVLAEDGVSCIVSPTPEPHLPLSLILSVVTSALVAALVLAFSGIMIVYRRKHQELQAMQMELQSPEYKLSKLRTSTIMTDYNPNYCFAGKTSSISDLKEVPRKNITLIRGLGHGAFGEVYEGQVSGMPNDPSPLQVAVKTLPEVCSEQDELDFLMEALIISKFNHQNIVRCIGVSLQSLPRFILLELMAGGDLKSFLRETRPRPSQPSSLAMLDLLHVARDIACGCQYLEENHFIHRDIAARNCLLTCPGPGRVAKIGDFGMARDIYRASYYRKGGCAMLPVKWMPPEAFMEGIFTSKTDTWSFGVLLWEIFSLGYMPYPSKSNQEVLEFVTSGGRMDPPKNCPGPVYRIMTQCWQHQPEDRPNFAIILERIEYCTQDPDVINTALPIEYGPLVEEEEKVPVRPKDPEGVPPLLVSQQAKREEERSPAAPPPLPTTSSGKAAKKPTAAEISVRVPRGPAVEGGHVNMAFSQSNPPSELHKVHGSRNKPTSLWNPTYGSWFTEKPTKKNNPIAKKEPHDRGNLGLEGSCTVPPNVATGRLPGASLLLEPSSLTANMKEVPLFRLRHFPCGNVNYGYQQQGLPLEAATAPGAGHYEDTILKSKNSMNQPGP
Procedure, shortened: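 IC50 was obtained from a logistic fit of signal versus log inhibitor concentration, using pre- and post-transition baselines and a Hill slope. The signal reported tyrosine phosphorylation of a biotinylated peptide by recombinant human kinase, detected as Eu-to-APC energy transfer.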

T1 sequence (P23458 849-1154): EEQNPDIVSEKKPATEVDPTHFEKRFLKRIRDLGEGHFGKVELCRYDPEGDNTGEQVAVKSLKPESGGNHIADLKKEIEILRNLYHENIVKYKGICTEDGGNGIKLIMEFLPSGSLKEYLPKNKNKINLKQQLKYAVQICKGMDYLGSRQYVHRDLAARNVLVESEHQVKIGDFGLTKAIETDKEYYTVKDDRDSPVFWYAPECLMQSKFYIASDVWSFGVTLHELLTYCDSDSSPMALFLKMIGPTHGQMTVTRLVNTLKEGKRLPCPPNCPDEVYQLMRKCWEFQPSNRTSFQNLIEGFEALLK

SMILES	IC50 [1] [µM]	IC50 [2] [µM]	IC50 [3] [µM]	IC50 [4] [µM]	ALK % of inhibition at a concentration of 500 nM or 1 mM [5] [%]
O=C(CC1CCNCC1)Nc1ccc2cc1CCc1cccc(c1)Nc1ncc(Cl)c(n1)N2 [Example A46, N-[6-Chloro-2,4,8,22-tetraazatetracyclo[14.3.1.1(3,7).1(9,13)]docosa-1(20), 3(22),4,6,9(21),10,12,16,18-nonaen-12-yl]-2-piperidin-4-ylacetamide bis(trifluoroacetate)]	0.01	0.016	0.049	0.042	20
CC(=O)N1CCCC(C(=O)Nc2ccc3cc2CCc2cccc(c2)Nc2ncc(Cl)c(n2)N3)C1 (centres unmarked) [Example A47, 1-Acetyl-N-[6-chloro-2,4,8,22-tetraazatetracyclo[14.3.1.1(3,7).1(9,13)]docosa-1(20),3(22),4,6,9(21),10,12,16,18-nonaen-12-yl]piperidine-3-carboxamide trifluoroacetate]	0.017	0.0069	0.025	0.039	26
O=C(Nc1ccc2cc1CCc1cccc(c1)Nc1ncc(Cl)c(n1)N2)C1CCCN(C(=O)c2ccccc2)C1 (centres unmarked) [Example A48, 1-Benzoyl-N-[6-chloro-2,4,8,22-tetraazatetracyclo[14.3.1.1(3,7).1(9,13)]docosa-1(20),3(22),4,6,9(21),10,12,16,18-nonaen-12-yl]piperidine-3-carboxamide trifluoroacetate]	0.027	0.013	0.056	0.092	28
CCNC(=O)N1CCCC(C(=O)Nc2ccc3cc2CCc2cccc(c2)Nc2ncc(Cl)c(n2)N3)C1 (centres unmarked) [Example A49, N(3)-[6-Chloro-2,4,8,22-tetraazatetracyclo[14.3.1.1(3,7).1(9,13)]docosa-1(20),3(22),4,6,9(21),10,12,16,18-nonaen-12-yl]-N(1)-ethylpiperidine-1,3-dicarboxamide trifluoroacetate]	0.014	0.0075	0.011	0.039	24
CC(=O)N1CC[C@@H](C(=O)Nc2ccc3cc2CCc2cccc(c2)Nc2ncc(Cl)c(n2)N3)C1 [Example A51, (3R)-1-Acetyl-N-[6-chloro-2,4,8,22-tetraazatetracyclo[14.3.1.1(3,7).1(9,13)]docosa-1(20),3(22),4,6,9(21),10,12,16,18-nonaen-12-yl]pyrrolidine-3-carboxamide trifluoroacetate]	0.013	0.005	0.01	0.021	30
CCNC(=O)N1CCC(C(=O)Nc2ccc3cc2CCc2cccc(c2)Nc2ncc(Cl)c(n2)N3)CC1 [Example A59, N(4)-[6-Chloro-2,4,8,22-tetraazatetracyclo[14.3.1.1(3,7).1(9,13)]docosa-1(20),3(22),4,6,9(21),10,12,16,18-nonaen-12-yl]-N(1)-ethylpiperidine-1,4-dicarboxamide trifluoroacetate]	0.026	0.0069	0.019	0.015	39
CCOC(=O)CNC(=O)N1CCC(C(=O)Nc2ccc3cc2CCc2cccc(c2)Nc2ncc(Cl)c(n2)N3)CC1 [Example A60, Ethyl ({[4-({[6-chloro-2,4,8,22-tetraazatetracyclo[14.3.1.1(3,7).1(9,13)]docosa-1(20),3(22),4,6,9(21),10,12,16,18-nonaen-12-yl]amino}carbonyl)piperidin-1-yl]carbonyl}amino)acetate trifluoroacetate]	0.031	0.0065	0.014	0.022	28
O=C(Nc1ccc2cc1CCc1cccc(c1)Nc1ncc(Cl)c(n1)N2)C1CCN(C(=O)NC2CCCC2)CC1 [Example A61, N(4)-[6-Chloro-2,4,8,22-tetraazatetracyclo[14.3.1.1(3,7).1(9,13)]docosa-1(20),3(22),4,6,9(21),10,12,16,18-nonaen-12-yl]-N(1)-cyclopentylpiperidine-1,4-dicarboxamide trifluoroacetate]	0.029	0.011	0.016	0.022	41

Now those with a lower IC50 [1], led by results:

IC50 [1] [µM]	IC50 [2] [µM]	IC50 [3] [µM]	IC50 [4] [µM]	ALK % of inhibition at a concentration of 500 nM or 1 mM [5] [%]	SMILES
0.0061	0.0012	0.0032	0.014	35	CCNC(=O)N1CC[C@@H](C(=O)Nc2ccc3cc2CCc2cccc(c2)Nc2ncc(Cl)c(n2)N3)C1 [Example A53, (3R)—N(3)-[6-Chloro-2,4,8,22-tetraazatetracyclo[14.3.1.1(3,7).1(9,13)]docosa-1(20),3(22),4,6,9(21),10,12,16,18-nonaen-12-yl]-N(1)-ethylpyrrolidine-1,3-dicarboxamide trifluoroacetate]
0.0055	0.0073	0.06	0.0088	24	CCNC(=O)N1CCC(CC(=O)Nc2ccc3cc2CCc2cccc(c2)Nc2ncc(Cl)c(n2)N3)CC1 [Example A57, 4-(2-{[6-Chloro-2,4,8,22-tetraazatetracyclo[14.3.1.1(3,7).1(9,13)]docosa-1(20),3(22),4,6,9(21),10,12,16,18-nonaen-12-yl]amino}-2-oxoethyl)-N-ethylpiperidine-1-carboxamide trifluoroacetate]
0.0042	0.0073	0.09	0.01	26	O=C(CC1CCN(C(=O)c2ccccc2)CC1)Nc1ccc2cc1CCc1cccc(c1)Nc1ncc(Cl)c(n1)N2 [Example A56, 2-(1-Benzoylpiperidin-4-yl)-N-[6-chloro-2,4,8,22-tetraazatetracyclo[14.3.1.1(3,7).1(9,13)]docosa-1(20),3(22),4,6,9(21),10,12,16,18-nonaen-12-yl]acetamide trifluoroacetate]
0.004	0.0029	0.0035	0.012	54	O=C(Nc1ccc2cc1CCc1cccc(c1)Nc1ncc(Cl)c(n1)N2)[C@@H]1CCN(C(=O)Nc2ccccc2)C1 [Example A54, (3R)—N(3)-[6-Chloro-2,4,8,22-tetraazatetracyclo[14.3.1.1(3,7).1(9,13)]docosa-1(20),3(22),4,6,9(21),10,12,16,18-nonaen-12-yl]-N(1)-phenylpyrrolidine-1,3-dicarboxamide trifluoroacetate]
0.0024	0.0065	0.013	0.021	37	O=C(Nc1ccc2cc1CCc1cccc(c1)Nc1ncc(Cl)c(n1)N2)C1CCCN(C(=O)Nc2ccccc2)C1 (centres unmarked) [Example A50, N(3)-[6-Chloro-2,4,8,22-tetraazatetracyclo[14.3.1.1(3,7).1(9,13)]docosa-1(20),3(22),4,6,9(21),10,12,16,18-nonaen-12-yl]-N(1)-phenylpiperidine-1,3-dicarboxamide trifluoroacetate]
0.0022	0.0045	0.0078	0.015	35	O=C(Nc1ccc2cc1CCc1cccc(c1)Nc1ncc(Cl)c(n1)N2)[C@@H]1CCN(C(=O)c2ccccc2)C1 [Example A52, (3R)-1-Benzoyl-N-[6-chloro-2,4,8,22-tetraazatetracyclo[14.3.1.1(3,7).1(9,13)]docosa-1(20),3(22),4,6,9(21),10,12,16,18-nonaen-12-yl]pyrrolidine-3-carboxamide trifluoroacetate]
0.0015	0.0024	0.054	0.0023	23	CC(=O)N1CCC(CC(=O)Nc2ccc3cc2CCc2cccc(c2)Nc2ncc(Cl)c(n2)N3)CC1 [Example A55, 2-(1-Acetylpiperidin-4-yl)-N-[6-chloro-2,4,8,22-tetraazatetracyclo[14.3.1.1(3,7).1(9,13)]docosa-1(20),3(22),4,6,9(21),10,12,16,18-nonaen-12-yl]acetamide trifluoroacetate]
0.0002	0.0011	0.022	0.0099	38	O=C(CC1CCN(C(=O)Nc2ccccc2)CC1)Nc1ccc2cc1CCc1cccc(c1)Nc1ncc(Cl)c(n1)N2 [Example A58, 4-(2-{[6-Chloro-2,4,8,22-tetraazatetracyclo[14.3.1.1(3,7).1(9,13)]docosa-1(20),3(22),4,6,9(21),10,12,16,18-nonaen-12-yl]amino}-2-oxoethyl)-N-phenylpiperidine-1-carboxamide trifluoroacetate]
